The results in this text go back to patent publication US9526802B2, “Nucleic acid complexes” (Purdue Research Foundation, priority 2012, dated 2016).

One data set relates to CHO-GFP cells. As to the kind of experiment: Cell viability assay (1), MTS. The format is cell-based. How it is done:
FIG. 3 depicts cell viabilities of 1, 2, 3, Chol-PVA-PEG and Chol-PVA-PEG+1 host:guest pendant polymer complexes in CHO-GFP cells using 25 kD bPEI as control.
The cytotoxicity of the amino-CD derivatives in comparison with bPEI (25 kDa) was evaluated using the MTS assay in CHO-GFP cell lines. The relative cell viabilities were measured as a function of amine densities of the polymers. […] After 24 h, culture media were replaced with serum-free culture media containing increasing amine concentrations of amino-CD, polymer and the polymer:CD complexes and the cells were incubated for 24 h. After 24 h, 15 μl of MTS reagent was added to each well and incubated for 2 h. […] All experiments were conducted for three samples and averaged. […] In this study, LD50 was the concentration of a gene carrier at which the relative cell viability decreased to 50%.

A further data set has as its system pDNA. As to the kind of experiment: Gel shift assay. The class given is binding. As to conditions: various N:P ratios, compared among 4, 5, 6. Here is the method:
The complexation ability of the systems was studied by gel shift assay. Agarose gels (1% w/v) containing ethidium bromide were made in 1× TE buffer. Transfection complexes were loaded onto the gel at various N:P ratios and 200 ng of DNA added to the wells. The gels were run at 50 V for about 1 h and visualized.
Also, in the absence of polymer, higher N:P ratios were used to condense pDNA effectively. […] This improved condensation capability of 6 relative to 4 and 5 can be attributed to the availability of both the nitrogens on the hydrazine moiety for interaction with pDNA.
(In EMSA bound probe runs differently from free probe, usually more slowly.)

Some results are limits rather than exact numbers.

In turn, `CNCCN(C)C[C@H]1O[C@@H]2O[C@H]3[C@H](O)[C@@H](O)[C@@H](O[C@H]4[C@H](O)[C@@H](O)[C@@H](O[C@H]5[C@H](O)[C@@H](O)[C@@H](O[C@H]6[C@H](O)[C@@H](O)[C@@H](O[C@H]7[C@H](O)[C@@H](O)[C@@H](O[C@H]8[C@H](O)[C@@H](O)[C@@H](O[C@H]1[C@H](O)[C@H]2O)O[C@@H]8CO)O[C@@H]7CO)O[C@@H]6CO)O[C@@H]5CO)O[C@@H]4CO)O[C@@H]3CO` [Compound 2, Mono-6-(N,N′-dimethylethane-1,2-diamine)-6-deoxy-β-cyclodextrin] had an LD50 in the data set on CHO-GFP cells greater than 10 mM.

Regarding `NNC[C@H]1O[C@@H]2O[C@H]3[C@H](O)[C@@H](O)[C@@H](O[C@H]4[C@H](O)[C@@H](O)[C@@H](O[C@H]5[C@H](O)[C@@H](O)[C@@H](O[C@H]6[C@H](O)[C@@H](O)[C@@H](O[C@H]7[C@H](O)[C@@H](O)[C@@H](O[C@H]8[C@H](O)[C@@H](O)[C@@H](O[C@H]1[C@H](O)[C@H]2O)O[C@@H]8CNN)O[C@@H]7CNN)O[C@@H]6CNN)O[C@@H]5CNN)O[C@@H]4CNN)O[C@@H]3CNN` [Compound 6, hepta-6-hydrazyl-β-CD], the “capacity for condensing pDNA” value with pDNA is “greatest capacity for condensing pDNA”.
